Data published in US11667621B2, “Antiestrogen compounds” (STEVENS INSTITUTE OF TECHNOLOGY, priority 2018, dated 2023).
Numbering of substitutions follows the chain as printed.

What was measured:
[1] = molecular target: T1, full length human estrogen receptor a (Homo sapiens, UniProt P03372); experiment: Competitive radiometric binding assay (RBA), tritiated estradiol tracer; details: relative to estradiol = 100; average SD of 2-3 determinations
T1 construct: purified, full-length human estrogen receptor a from Invitrogen; purchased Invitrogen
T1 sequence (P03372 1-595): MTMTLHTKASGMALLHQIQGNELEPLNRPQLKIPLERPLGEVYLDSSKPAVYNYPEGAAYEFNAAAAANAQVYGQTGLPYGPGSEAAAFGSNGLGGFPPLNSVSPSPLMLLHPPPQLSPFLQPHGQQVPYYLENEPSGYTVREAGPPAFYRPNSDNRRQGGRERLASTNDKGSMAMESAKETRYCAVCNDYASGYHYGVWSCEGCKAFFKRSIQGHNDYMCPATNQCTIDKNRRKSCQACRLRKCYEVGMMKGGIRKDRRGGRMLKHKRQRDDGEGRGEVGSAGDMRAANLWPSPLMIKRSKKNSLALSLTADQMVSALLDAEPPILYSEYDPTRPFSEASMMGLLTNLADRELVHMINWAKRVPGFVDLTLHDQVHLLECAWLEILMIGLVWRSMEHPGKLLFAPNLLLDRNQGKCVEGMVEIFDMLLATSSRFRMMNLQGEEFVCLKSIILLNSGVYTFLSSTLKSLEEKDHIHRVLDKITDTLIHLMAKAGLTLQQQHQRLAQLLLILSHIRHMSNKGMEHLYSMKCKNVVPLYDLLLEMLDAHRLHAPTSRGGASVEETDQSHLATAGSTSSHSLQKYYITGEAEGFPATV
Description: Tritiated estradiol was obtained from Perkin Elmer and purified, full-length human estrogen receptor a from Invitrogen.
Competitive radiometric binding assays (RBA) were performed on 96-well microtiter filter plates (Millipore), using full length human estrogen receptor a, with tritiated estradiol as tracer, as previously described (Carlson K E, Choi I, Gee A, Katzenellenbogen B S, Katzenellenbogen J A. Altered ligand binding properties and enhanced stability of a constitutively active estrogen receptor: evidence that an open pocket conformation is required for ligand interaction. Biochemistry 1997, 36(48), 14897-14905). After incubation on ice for 18-24 h, ERα-bound tracer was absorbed onto hydroxyapatite (BioRad), washed with buffer, and measured by scintillation counting. RBA values are the average SD of 2-3 determinations.

[2] = Cell proliferation assay (WST-1), 6-day exposure; assay type: cell-based; details: 144 h, read-out: Antiproliferation IC50
Description: Cell proliferation assay: WST-1 assay (Roche, Basel, Switzerland) was used to quantify cell viability after a 6-day exposure to compounds, as described in Gong et al. Mol. Cell. Endocrinol. 2016, 437, 190-200. Absorbance was measured at 450 nm using a VICTOR X5 PerkinElmer 2030 Multilabel Plate Reader, and cell proliferation values represent signal from compound-treated samples relative to vehicle-treated controls. All assays were performed in triplicate, and the values shown are the average SD of 2-3 independent experiments.

[3] = molecular target: T2, HA-ERα D538G (Homo sapiens, UniProt P03372, D538G); experiment: Luciferase assay, overexpressed ER (3×-ERE-TATA-Luciferase reporter); assay type: cell-based; details: for inhibition at 1 µM: compound concentration 1 μM, 24 hours
T2 construct: HA; expressed in transfected cells
T2 sequence (P03372 1-595 D538G): T1 sequence (P03372 1-595) with D538G
Description: (§1) Luciferase assays were performed to determine the efficacy of the example compounds at inhibiting ER or its mutants' ability to activate transcription of genes.
(§2) Cells were plated at a density of 0.15×10^6 per well of 24 well plates one day prior to transfection. Cells were transfected with 125 ng (per well) of HA-ERα wild type or mutants, 315 ng (per well) of 3×-ERE-TATA-Luciferase reporter and 50 ng (per well) of pRL-TK Renilla Luciferase plasmid, using Xtremegene (Roche). The cells were treated with the various compounds or Fulvestrant at the indicated doses a day after transfection for 24 hours and luciferase activities were determined using the Dual-Luciferase® Reporter Assay System (Promega) according to manufacturer's instructions. Luciferase bioluminescence measurements were performed with the Veritas™ Microplate Luminometer (Promega). All experiments were conducted in triplicate and the Firefly luciferase activity was normalized with the Renilla luciferase activity of each sample.

[4] = molecular target: T3, HA-ERα L536R (Homo sapiens, UniProt P03372, L536R); experiment: as above; assay type: cell-based; details: for inhibition at 1 µM: compound concentration 1 μM, 24 hours
T3 construct: HA; expressed in transfected cells
T3 sequence (P03372 1-595 L536R): T1 sequence (P03372 1-595) with L536R
Description: as §1, §2

[5] = molecular target: T4, HA-ERα Y537S (Homo sapiens, UniProt P03372, Y537S); experiment: as above; assay type: cell-based; details: for inhibition at 1 µM: compound concentration 1 μM, 24 hours
T4 construct: HA; expressed in transfected cells
T4 sequence (P03372 1-595 Y537S): T1 sequence (P03372 1-595) with Y537S
Description: as §1, §2

[6] = molecular target: T5, HA-ERα wild type (Homo sapiens, UniProt P03372); experiment: as above; assay type: cell-based; details: for inhibition at 1 µM: compound concentration 1 μM, 24 hours, read-out: Overexpressed ER (% Inhibition) WT
T5 construct: HA; expressed in transfected cells
T5 sequence (P03372 1-595): T1 sequence (P03372 1-595)
Description: as §1, §2

[7] = system: D538G cl. 65; experiment: Cell proliferation assay (Resazurin); assay type: cell-based
Description: (§3) Cell proliferation assays were performed to determine the efficacy of the compounds at inhibiting ER or its mutants' ability at promoting cell proliferation.
(§4) Cells were plated at 1500 cells/well into 96-well culture plates in regular media, treated with the indicated doses of the compounds or Fulvestrant the next day and incubated in a humidified incubator with 5% CO2 at 37° C. They were assayed for cell proliferation at Day 0, 3, 5 and 7 using the Resazurin reagent (R&D Systems), which upon addition, culture plates were incubated at 37° C. incubator for 4 hours before their fluorescence were read at 560 nm excitation and 590 nm emission wavelengths with a microtiter plate reader (Molecular Devices).

[8] = system: MCF7; experiment: Cell proliferation assay (Resazurin); assay type: cell-based; details: Homo sapiens
Description: as §3, §4

[9] = system: Y537S cl. 24; experiment: Cell proliferation assay (Resazurin); assay type: cell-based
Description: as §3, §4

Row | RBA (estradiol = 100) [1] | inhibition at 1 µM [3] [%] | inhibition at 1 µM [4] [%] | inhibition at 1 µM [5] [%] | inhibition at 1 µM [6] [%] | Structure (SMILES) | IC50 [2] [nM] | other results
1 | 14 ± 1 | – | – | – | – | CC(C)C[C@H](NC(=O)OC(C)(C)C)C(=O)NCCCCOc1ccc(C(=C2C3CC4CC(C3)CC2C4)c2ccc(O)cc2)cc1 [Example 2, (S)-tert-Butyl (1-((4-(4-(adamantan-2-ylidene(4-hydroxyphenyl)methyl)-phenoxy)butyl)amino)-4-methyl-1-oxopentan-2-yl)carbamate] | 36 | –
2 | 14 ± 4 | – | – | – | – | CC(C)(C)OC(=O)N[C@@H](Cc1ccccc1)C(=O)NCCCCOc1ccc(C(=C2C3CC4CC(C3)CC2C4)c2ccc(O)cc2)cc1 [Example 3, (S)-tert-Butyl(1-((4-(4-(adamantan-2-ylidene(4-hydroxyphenyl)methyl)-phenoxy)butyl)amino)-1-oxo-3-phenylpropan-2-yl)carbamate] | 7 | –
3 | 21 ± 6 | – | – | – | – | O=C(NCCOc1ccc(C(=C2C3CC4CC(C3)CC2C4)c2ccc(O)cc2)cc1)C12CC3CC(CC(C3)C1)C2 [Example 4, N-(2-(4-(Adamantan-2-ylidene(4-hydroxyphenyl)methyl)phenoxy)ethyl)-adamantane-1-carboxamide] | 17 | –
4 | 26 ± 6 | – | – | – | – | O=C(NCCCOc1ccc(C(=C2C3CC4CC(C3)CC2C4)c2ccc(O)cc2)cc1)C12CC3CC(CC(C3)C1)C2 [Example 5, N-(3-(4-(Adamantan-2-ylidene(4-hydroxyphenyl)methyl)phenoxy)propyl)-adamantane-1-carboxamide] | 9 | –
5 | – | 95 | 94 | 95 | 96 | O=C(NCCCCOc1ccc(Oc2c(-c3ccc(O)cc3)sc3cc(O)ccc23)cc1)[C@H]1CC[C@H](C(F)(F)F)CC1 [Example 17, (trans)-N-(4-(4-((6-Hydroxy-2-(4-hydroxyphenyl)benzo[b]thiophen-3-yl)oxy)phenoxy)butyl)-4-(trifluoromethyl)cyclohexanecarboxamide] | – | IC90 ([3]; luciferase assay, Table 4): 175 nM; IC90 ([4]; luciferase assay, Table 4): 124 nM; IC90 ([5]; luciferase assay, Table 4): 464 nM; IC90 ([6]; luciferase assay, Table 4): 19 nM; IC90 [7]: 315 nM; IC90 [8]: 22.1 nM; IC90 [9]: 304 nM
6 | – | 65 | 69 | -32 | 52 | O=C(NCCCCOc1ccc(C(=C2CCCCC2)c2ccc(O)cc2)cc1)C12CC3CC(CC(C3)C1)C2 [Example 26, N-(4-(4-(Cyclohexylidene(4-hydroxyphenyl)methyl)phenoxy)-butyl)adamantane-1-carboxamide] | – | –
7 | – | 60 | 43 | -64 | 13 | O=C(NCCCCOc1ccc(Oc2c(-c3ccc(O)cc3)sc3cc(O)ccc23)cc1)C1CCC1 [Example 28, N-(4-(4-((6-Hydroxy-2-(4-hydroxyphenyl)benzo[b]thiophen-3-yl)oxy)phenoxy)butyl)cyclobutanecarboxamide] | – | –
8 | – | 73 | 90 | 1 | 39 | O=C(NCCCCOc1ccc(Oc2c(-c3ccc(O)cc3)sc3cc(O)ccc23)cc1)C1CC(F)(F)C1 [Example 29, 3,3-Difluoro-N-(4-(4-((6-hydroxy-2-(4-hydroxyphenyl)benzo[b]thiophen-3-yl)oxy)phenoxy)butyl)cyclobutanecarboxamide] | – | –
